Assay results taken from publication PMC8583776, “PD-L1 Inhibitors: Different Classes, Activities, and Mechanisms of Action” (International Journal of Molecular Sciences, 2021).
Where two headings read alike, the source gives them in different places.

Tests used:
hPD-1/hPD-L1 complex [1] = biological target: T1, hPD-1/hPD-L1 complex (Homo sapiens, UniProt Q9NZQ7); details: cited from earlier work
T1 construct: Tag1 or Tag2 (kit tag, identity not disclosed); purchased CisBio (Codolet, France)

[2] = biological target: T2, PD-1/PD-L1 immune checkpoint (Homo sapiens, UniProt Q9NZQ7); details: cited from earlier work; for EC50: read-out: ICB Assay EC50; for ICB Assay %RLUmax: % of activation by therapeutic anti-PD-L1 antibody
T2 construct: host or cells: CHO-K1 (CHO/TCRAct/PD-L1) cells and Jurkat Effector Cells
T2 sequence (Q9NZQ7 19-290): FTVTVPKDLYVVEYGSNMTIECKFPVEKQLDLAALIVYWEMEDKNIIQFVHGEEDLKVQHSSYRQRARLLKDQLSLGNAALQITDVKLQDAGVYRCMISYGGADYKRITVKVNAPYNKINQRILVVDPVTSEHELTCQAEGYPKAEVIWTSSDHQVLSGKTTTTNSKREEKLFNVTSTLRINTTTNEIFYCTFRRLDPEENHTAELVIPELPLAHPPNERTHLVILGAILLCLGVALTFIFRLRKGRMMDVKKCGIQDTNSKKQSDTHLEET

mPD-L1 = system: mPD-L1; parameters: method as in PMID 33437940; details: cited from earlier work; for Target Specificity mPD-L1: mouse PD-L1
human PD-L1 [3] = details: cited from earlier work
PD-1 = details: cited from earlier work
PD-1/PD-L1 complex = details: various assays; cited from earlier work
human PBMCs = system: human PBMCs; parameters: method as in PMID 31374878; details: cited from earlier work
mouse T cells = system: mouse T cells; parameters: method as in PMID 31374878; details: cited from earlier work
hPD-1/hPD-L1 complex [4] = biological target: T1, hPD-1/hPD-L1 complex; experiment: HTRF assay of PD-1/PD-L1 complex formation blockade; type: binding; details: Figure A2, 5 nM hPD-L1, 50 nM hPD-1
From the text: We performed a comparison of the in vitro targeting of the PD-1/PD-L1 immune checkpoint with molecules selected from various classes, including small molecules, macrocyclic peptides, and monoclonal antibodies. For this, two standardized and popular techniques used in the available literature were applied: the protein-based Homogeneous Time-Resolved Fluorescence (HTRF) method and the cell-based Immune Checkpoint Blockade (ICB) assay. Using these methods, three parameters describing the in vitro potency of the tested compounds were determined: (i) IC50 values of the blockade of PD-1/PD-L1 complex formation (from HTRF); (ii) EC50 values of the reactivation of the effector T cells blocked with PD-L1 (from ICB); and (iii) maximal activation levels of the effector T cells, calculated as the % of the activation in the presence of therapeutic anti-PD-L1 antibody atezolizumab or durvalumab. […]
The certified CisBio (Codolet, France) HTRF assay was used to determine the IC50 values of the compounds according to the manufacturer’s guidelines. […] IC50 of tested compounds was determined for two individual dilution series unless stated otherwise. After mixing, the plate was left for 2 h incubation at room temperature and later measured using Tecan Spark 20M multimode microplate reader (Tecan, Männedorf, Switzerland). […]

human PD-L1 [5] = system: human PD-L1; parameters: method as in PMID 29069777, PMID 28613862, PMID 27083005, PMID 33619272; details: in vitro PD-L1 dimerization in the presence of the molecule; cited from earlier work
hPD-L1 = system: hPD-L1; parameters: method as in PMID 33437940; details: cited from earlier work
PD-L1 = system: PD-L1; parameters: method as in PMID 33619272; details: cited from earlier work
MC38-hPD-L1 tumor model = system: MC38-hPD-L1 tumor model; parameters: method as in PMID 33619272; details: humanized double knock-in mice for PD-1 and PD-L1; cited from earlier work
[6] = other laboratories, read-out: HTRF IC50 Other
[7] = authors' laboratory, read-out: HTRF IC50 Ours

T1 sequence (Q9NZQ7 19-238 limits assumed, one chain of several): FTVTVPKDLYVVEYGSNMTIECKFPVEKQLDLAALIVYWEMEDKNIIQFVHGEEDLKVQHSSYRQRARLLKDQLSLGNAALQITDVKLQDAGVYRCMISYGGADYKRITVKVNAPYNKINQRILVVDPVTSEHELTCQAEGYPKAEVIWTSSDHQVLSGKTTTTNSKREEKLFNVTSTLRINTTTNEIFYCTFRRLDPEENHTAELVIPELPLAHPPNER

Compound | IC50 (hPD-1/hPD-L1 complex [1]; [6]) | EC50 [2] | ICB Assay %RLUmax [2] | Target Specificity mPD-L1 (mPD-L1) | further results
p57: macrocyclic peptide PD-L1 inhibitor disclosed by Bristol Myers Squibb | 9 nM | 566 nM |  |  | 
O=C(O)[C@@H]1CCCCN1Cc1ccc(OCc2cccc(-c3ccccc3)c2Br)c(Br)c1 [2k] |  | 6630 nM | 87% | No | IC50 (hPD-1/hPD-L1 complex [1]; [7]): 14.9 nM
CC(=O)NCCNCc1cc(C)c(OCc2cccc(-c3cccc(COc4cc(OCc5cccc(C#N)c5)c(CNCCNC(C)=O)cc4C)c3C)c2C)cc1OCc1cccc(C#N)c1 [2b] |  | 763 nM | 93% | No | 
Cc1c(COc2cc(OCc3cccc(C#N)c3)c(CN3C[C@H](O)C[C@@H]3C(=O)O)cc2Cl)cccc1-c1ccc2c(c1)OCCO2 [BMS-1166] |  |  |  | No | 
C[C@@H](O)[C@H](NC(=O)N[C@@H](CC(N)=O)c1nc([C@@H](N)CO)no1)C(=O)O [CA-170] |  |  |  |  | activity in PD-1/PD-L1-focused cell-based ICB assay [2]: inactive; direct binding to human PD-L1 (human PD-L1 [3]): direct binder of neither human PD-L1 nor PD-1; direct binding to PD-1 (PD-1): direct binder of neither human PD-L1 nor PD-1; dissociation of the PD-1/PD-L1 complex (PD-1/PD-L1 complex): unable to dissociate the PD-1/PD-L1 complex; activation of human PBMCs (human PBMCs): increase the activation of human PBMCs; activation of mouse T cells (mouse T cells): increase the activation of human PBMCs and mouse T cells
nivolumab: therapeutic antibody | 0.2 nM | 1.27 nM | 100% |  | 
durvalumab: therapeutic anti-PD-L1 antibody |  | 0.23 nM | 100% | No | IC50 (hPD-1/hPD-L1 complex [4]; read-out: HTRF IC50): 0.0966 nM; IC50 (hPD-1/hPD-L1 complex [4]; [7]): 0.1 nM; PD-L1 Dimerization (human PD-L1 [5]): No; blockade of human PD-L1 (hPD-L1): blocks the human PD-L1; blockade of mouse PD-L1 (mPD-L1): not the mouse PD-L1
CC(=O)NCCNCc1cc(C)c(OCc2cccc(-c3cccc4c3CCN4CCCN3CCC(O)CC3)c2C)cc1OCc1cccc(C#N)c1 [A20] | 17 nM | 430 nM | 55% |  | 
O=C(O)[C@H](CO)NCc1ccc2c(Nc3cccc(-c4ccc5c(c4)OCCO5)c3Cl)nsc2c1 [CH20] | 8.5 nM | 5600 nM | 93% |  | 
p101: macrocyclic peptide PD-L1 inhibitor disclosed by Bristol Myers Squibb (FFIVIRDRVFRCG) | 120 nM | 7500 nM |  |  | IC50 (hPD-1/hPD-L1 complex [1]; [7]): 27.8 nM
COc1cc(-c2cccc(-c3ccc4c(c3)OCCO4)c2Cl)ccc1CNC(CO)(CO)CO [8j] |  | 1030 nM | 87% | No | IC50 (hPD-1/hPD-L1 complex [1]; [7]): < 1 nM
COc1cc(-c2cccc(-c3cccc(-c4ccc(CN5CC(C(=O)O)C5)c(OC)c4)c3C)c2C)ccc1CN1CC(C(=O)O)C1 [C13] | 4.23 nM | 104 nM | 100% |  | 
O=C(O)[C@H](CO)NCc1cc(Br)c(OCc2cccc(-c3ccccc3)c2Br)cc1OCc1ccc2nonc2c1 [L7] |  | 375 nM | 75% |  | 
atezolizumab: therapeutic anti-PD-L1 antibody |  | 0.14 nM | 100% |  | PD-L1 Dimerization (human PD-L1 [5]): No; blockade of human PD-L1 (hPD-L1): blocks both human and mouse PD-L1; blockade of mouse PD-L1 (mPD-L1): blocks both human and mouse PD-L1
p71: macrocyclic peptide PD-L1 inhibitor disclosed by Bristol Myers Squibb | 7 nM | 293 nM |  |  | 
Cc1c(NC(=O)c2ccc(CNCCO)cn2)cccc1-c1cccc(NC(=O)c2ccc(CNCCO)cn2)c1C [comp. A] | 0.4 nM | 18.9 nM | 86.3% | No | dimerization of PD-L1 in a cellular context (PD-L1): dimerization of PD-L1; in vivo bioactivity (MC38-hPD-L1 tumor model): succeeded in showing the bioactivity
COc1nc(OCc2cccc(-c3ccccc3)c2C)ccc1CNCCNC(C)=O [BMS-202] |  |  |  | No | 
